Results: patent publication US6800645B1, “Substituted azabicyclic compounds” (Aventis Pharma Limited, priority 1996, dated 2004)

| melting point | SMILES |
| --- | --- |
| 210 °C (dec.) | COCc1nc2c(OC)ccc(C(O)(Cc3ccncc3)Cc3ccncc3)c2[nH]1 [Example 5, 1,3-bis-(4-pyridyl)-2-(7-methoxy-2-methoxymethyl-3H-benzimidazol-4-yl)-propan-2-ol] |
| 245 °C | Cc1ccc(S(=O)(=O)n2cc(C=O)c3ccc(C(=O)Nc4c(Cl)cncc4Cl)cc32)cc1 [Example 17, N-(3,5-Dichloro-pyridin-4-yl)-3-formyl-1-(toluene-4-sulphonyl)-1H-indole-6-carboxamide] |
| 218 to 220 °C (dec.) | COCc1nc2c(OC)ccc(C(=O)Cc3ccncc3)c2[nH]1 [Example 4, 1-(7-Methoxy-2-methoxymethyl-3H-benzimidazol-4-yl)-2-(4-pyridyl)ethanone] |
| 146 to 147 °C | COc1ccc(Cn2cc(C)c3ccc(C(=O)c4ccccc4)cc32)cc1 [Example 24, [1-(4-Methoxy-benzyl)-3-methyl-1H-indol-6-yl]-phenyl methanone] |
